Source: patent publication US11389423B2, “Pharmaceutical composition, excipient for the composition and use of the composition” (priority 2018, dated 2022)

Key:
mice (male and female) = assay: Single dose (acute) toxicity study in mice; assay type: in vivo
Method: The single-dose (acute) toxicity study was carried out with different groups of rats and mice (male and female) and according to the procedures recommended by OECD (2001) and ANVISA (2013).
After a 6 h-fasting period, the animals' body weight was determined, and the dose of the synthetic CBD was calculated. Two single doses (1000 and 2000 mg/kg) of synthetic CBD were administered orally (with the aid of a gavage probe) and intraperitoneally in different groups of rats and mice (male and female). Other different groups of rodents were treated with placebo and were considered as control groups.
The animals were carefully observed for any toxicity signs within the first eight hours after treatment, and daily for a period of 14 days. On the 15th day all animals were euthanized, and the respective anatomopathological investigations were performed on the 15th day after the treatments.

male rabbits = assay: Effects on central nervous system, modified Irwin test; assay type: in vivo, New Zealand rabbits; conditions: male rabbits, 17, 51 and 170 mg/kg by gavage, single dose
Method: Male New Zealand rabbits (n=6 per group) were used for pharmacological safety tests. All tests were performed orally (route recommended for humans) and the investigated parameters were determined after a single administration of CBD-SINT. CBD-SINT doses were determined by allometric extrapolation from the average dose used in human patients (25 mg/kg).
The dose of 51 mg/kg was used as the intermediate dose, stipulating a higher and a lower dose. Three dose ranges were used according to the Guide for Conducting Non-Clinical Toxicology and Pharmacological Safety Studies Necessary for Drug Development (ANVISA, 2013; Version 1.2). Thus, the doses used were 17, 51 and 170 mg/kg of CBD-SINT.
Effects on the central nervous system were assessed in male rabbits according to the modified Irwin test (Roux et al., 2005).
After 6 h-fasting, three doses of CBD (17, 51 and 170 mg/kg) were administered to different groups of male rabbits by gavage. Placebo was administered to the control group (1 mL/kg). The solid diet was released to the animals 1 hour after the treatments.
The clinical and behavioral effects were assessed at 0-15 min, 15, 30, 60, 120 and 180 min and 24 h after administrations. […]

[1] = system: Salmonella typhimurium TA98; assay: AMES test, strain TA98; assay type: cell-based; conditions: TA98, with (+S9) and without (-S9) metabolic activation, 62.5-375 μg/plate
Text: For the AMES test, the TA 100 and TA 98 strains of Salmonella typhimurium were used. The strain TA 100, which detects mutagens causing base pair replacement in DNA, contains a mutation in the hisG gene (hisG46), which codes for the first histidine biosynthesis enzyme, with the CG pair as the preferred point for reversion. The strain TA 98 has a mutation in the hisD gene to reverse eight repetitive GC residues and detects mutagenic compounds causing the DNA reading frame to shift. According to the methodology of direct incorporation in plates, developed by Maron and Ames (1983), different concentrations of CBD-SINT (375, 250, 125 and 62.5 μg/plate) were mixed with 0.1 mL of the bacteria culture and 2 mL of surface agar (top agar), supplemented with traces of histidine and biotin. For the tests with metabolic activation, 0.5 mL homogenized microsomal fraction S9 of rat liver (post-mitochondrial fraction, supplemented with a cofactor, prepared from the liver of rodents treated with an enzymatic inducing agent, arochloror 1254) (MOLTOX—Molecular Toxicology, USA) were added. As a negative control, double-distilled water (vehicle) was used. As a positive control for TA98, 4-nirophenylenediamine (NPD) dissolved in DMSO was used at a concentration of 10 μg/plate. […] After this period, the number of reversing colonies per plate was counted. […]

[2] = 1000 mg/kg and 2000 mg/kg intraperitoneally, single dose

## C=C(C)[C@@H]1CCC(C)=C[C@H]1c1c(O)cc(CCCCC)cc1O [CBD-SINT, Cannabidiol]
Mice (male and female); [2]
  abdominal contortions during the first 8 hours: occasional abdominal contortions
  activity during the first 8 hours of observation: significant decrease in its activity
Mice (male and female); 1000 and 2000 mg/kg, oral or intraperitoneal
  daily feed and water consumption compared to placebo: no change
Mice (male and female); 1000 and 2000 mg/kg, oral or intraperitoneal, 14 days
  final body weight and body weight gains vs placebo: similar
Mice (male and female); 1000 and 2000 mg/kg, oral or intraperitoneal, after the first 8 h
  appearance and general behavior pattern until the end of the 14-days observation: no significant changes
Mice (male and female); after 14 days
  absolute (g) or relative (%) weight of all organs vs placebo: no significant differences
Mice (male and female); day 15
  histopathological analyzes: no significant changes
  macroscopic examination of vital organs: did not disclose any abnormalities
Mice (male and female); doses up to 2000 mg/kg orally or intraperitoneally, 14 days
  deaths (LD50 not set forth): no deaths were observed
Male rabbits
  animals' behavior or physiological status until the end of the 24 h: no significant changes
  inactivity or refusal to consume food or water during the observation period (24 h): none of the experimental animals was inactive or refused to consume food or water
[1]
  frequency of reversible mutants with the increase in concentration: no increase
  mutagenicity ratios (MR): less than 2
